Patent publication US7576128B2 (priority 2004, dated 2009)
Numbering of substitutions follows the chain as printed. pIC50: −log10 of the molar value. Where two headings read alike, the source gives them in different places.

Key:
[1] = target: T1, hAR (human androgen receptor) (Homo sapiens, UniProt P10275); assay: Competitive binding analysis on baculovirus/Sf9 generated hAR extracts with 3H-DHT tracer
T1 construct: made in house; host or cells: baculovirus/Sf9 insect cells
T1 sequence (P10275 1-920): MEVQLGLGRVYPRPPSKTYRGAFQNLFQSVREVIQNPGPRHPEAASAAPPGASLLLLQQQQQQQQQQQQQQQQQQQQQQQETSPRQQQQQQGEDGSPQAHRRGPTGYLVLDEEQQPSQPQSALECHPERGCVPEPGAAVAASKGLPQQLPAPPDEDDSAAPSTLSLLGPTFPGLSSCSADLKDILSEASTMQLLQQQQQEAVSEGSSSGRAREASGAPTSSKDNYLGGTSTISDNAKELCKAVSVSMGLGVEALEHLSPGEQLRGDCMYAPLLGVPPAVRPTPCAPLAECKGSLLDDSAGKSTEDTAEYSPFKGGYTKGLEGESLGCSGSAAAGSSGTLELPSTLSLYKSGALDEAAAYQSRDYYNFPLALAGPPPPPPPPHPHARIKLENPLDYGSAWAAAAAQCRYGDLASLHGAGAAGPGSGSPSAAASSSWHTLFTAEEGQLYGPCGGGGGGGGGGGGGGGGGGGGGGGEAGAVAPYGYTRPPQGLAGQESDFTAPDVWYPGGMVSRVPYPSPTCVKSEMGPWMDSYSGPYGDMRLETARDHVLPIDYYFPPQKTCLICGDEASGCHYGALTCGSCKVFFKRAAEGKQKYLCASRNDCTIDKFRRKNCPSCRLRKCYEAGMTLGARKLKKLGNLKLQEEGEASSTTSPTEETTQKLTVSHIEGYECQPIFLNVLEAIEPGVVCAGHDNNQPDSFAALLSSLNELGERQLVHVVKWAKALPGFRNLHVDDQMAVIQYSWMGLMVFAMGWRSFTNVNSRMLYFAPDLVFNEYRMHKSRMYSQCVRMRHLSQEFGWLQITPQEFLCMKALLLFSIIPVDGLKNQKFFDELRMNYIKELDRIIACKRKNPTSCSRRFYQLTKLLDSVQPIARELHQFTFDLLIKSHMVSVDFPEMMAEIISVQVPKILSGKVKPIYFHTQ
Description: The description below describes how the assay was carried out.
Competitive binding analysis was performed on baculovirus/Sf9 generated hAR extracts in the presence or absence of different concentrations of test agent and a fixed concentration of ^3H-dihydrotestosterone (^3H-DHT) as tracer. This binding assay method is a modification of a protocol previously described (Liao S., et. al. J. Steroid Biochem. 20:11-17 1984). Briefly, progressively decreasing concentrations of compounds are incubated in the presence of hAR extract (Chang et al. P.N.A.S. Vol. 89, pp. 5546-5950,1992), hydroxylapatite, and 1 nM ^3 H-DHT for one hour at 4° C. Subsequently, the binding reactions are washed three times to completely remove excess unbound ^3 H-DHT. hAR bound ^3H-DHT levels are determined in the presence of compounds (=i.e competitive binding) and compared to levels bound when no competitor is present (=i.e. maximum binding). Compound binding affinity to the hAR is expressed as the concentration of compound at which one half of the maximum binding is inhibited.

[2] = target: T2, androgen receptor (Homo sapiens, UniProt P10275); assay: AR antagonist cell assay, MDA-MB453-MMTV clone 54-19 luciferase reporter; type: cell-based; details: MDA-MB453-MMTV clone 54-19, 100 pM DHT, 17 hr; mean of multiple tests; read-out: AR Cell IC50
T2 sequence (P10275 1-920 Q868H): T1 sequence (P10275 1-920) with Q868H
Description: The compounds ability to antagonize the effects of androgen on the androgen receptor were determined in a whole cell assay as described immediately below.
This cell line is a stable transfected cell line with MDA-MB453 cell background (a human breast tumor cell line expressing androgen receptor). A MMTV minimal promoter containing ARE was first cloned in front of a firefly luciferase reporter gene. Then the cascade was cloned into transfection vector pUV120puro. Electroporation method was used for transfecting MDA-MB-453 cell. Puromycin resistant stable cell line was selected.
• 1. Cells are maintained in culture medium, splitting cells when they reach 80-90% confluence • 2. To test compounds, 10,000 cells/well are plated to opaque 96 cell culture plate in 100 ul/well plating medium, culture for overnight at 37° C. in cell culture incubator • 3. Carefully remove plating medium, then add 80 ul/well of pre-warmed assay medium, add 10 ul/well testing compound (final concentration at) 1000 nM, 200 nM, 40 nM, 8 nM, 1.6 nM, and 0.32 nM), incubate at 37° C. for 30 minutes • 4. Add 10 ul/well freshly prepared DHT (final concentration at 100 pM) to each well, incubate at 37° C. for 17 hr (overnight) • 5.
The results are reported as the mean of multiple tests as described below (the numbers of tests are indicated in the footnote). N.D. denotes that the compound was not tested.

Row | SMILES | pIC50 ([1]; hAR extract, 1 nM 3H-DHT, one hour at 4° C., mean of multiple tests, read-out: AR Binding IC50) | pIC50 [2] | pIC50 [1]
1 | CCCCC(COc1ccc(C#N)c(C(F)(F)F)c1)C(C)O (stereo not shown) [Example 15, 4-[2-(1-Hydroxy-ethyl)-hexyloxy]-2-tri-fluoromethyl-benzonitrile] | 6.68 | 6.91 | –
2 | C[C@H](O)CC[C@H](C)Oc1ccc(C#N)c(C(F)(F)F)c1 [Example 23, (1S,4S)-4-(4-Hy-droxy-1-methylpentyl-oxy)-2-tri-fluoromethyl-benzonitrile] | – | 6.88 | 7.39
